Reference: the NIST ThermoML archive (doi:10.1016/j.jct.2004.07.004)

Assay: mn = molality of the nth substance listed, in mol/kg
Details: 100 kPa, Liquid

CC(C)C[C@H](NC(=O)[C@@H]1CCCN1)C(=O)O [proline-leucine] + O
mass density [kg/m3]
Details	283.15 K	288.15 K	293.15 K	298.15 K	303.15 K	308.15 K
m1 = 0.00191	–	–	998.299	–	–	994.122
m1 = 0.0025	–	999.209	998.324	997.166	–	994.156
m1 = 0.00255	–	–	–	–	995.771	–
m1 = 0.0035	999.851	999.261	998.368	997.215	–	994.198
m1 = 0.00399	–	999.283	998.394	–	–	–
m1 = 0.0045	999.901	999.303	998.416	997.251	995.856	994.246
m1 = 0.00505	999.956	999.356	998.452	–	–	994.278
m1 = 0.00549	–	999.353	998.462	997.3	995.925	994.294
m1 = 0.00602	1000	999.407	998.502	997.35	995.943	994.322
m1 = 0.00649	–	–	998.533	997.374	995.96	994.345
m1 = 0.00709	1000.06	999.445	998.552	997.381	–	–
m1 = 0.00748	–	999.48	998.581	997.416	995.999	994.392
m1 = 0.00776	1000.09	–	–	–	–	–
m1 = 0.00833	–	999.516	998.63	–	996.05	994.433
m1 = 0.00849	–	999.544	998.633	997.468	996.044	994.436
m1 = 0.00904	1000.16	999.542	998.644	–	–	–
m1 = 0.00949	–	999.594	998.69	997.521	996.091	–
m1 = 0.01004	–	999.608	998.704	997.541	996.128	994.51
m1 = 0.0105	1000.24	999.641	998.74	997.562	996.136	–
m1 = 0.01084	1000.25	999.633	–	997.57	–	994.545
m1 = 0.01148	1000.3	999.691	998.787	997.614	996.183	–
